The values that follow come from patent publication US9493464B2, “Wee1 degradation inhibitors” (The Scripps Research Institute, priority 2012, dated 2016).

By EC50 is commonly meant the concentration at which the effect is half-maximal. For orientation: IC50 means the midpoint of a concentration-inhibition curve. By GI50 is commonly meant the concentration giving 50% growth inhibition.

Where “and” joins values, the source holds several entries; their conditions need not be identical. Identical values can stand only once. Entries after “also recorded” stand apart in the source; their conditions may differ. Like-named read-outs stand apart in the source and are kept apart here.

The subject of one series is K328M-Wee1-luciferase. Description: Wee1-luciferase assay (stabilization of K328M-Wee1-luciferase). Format: cell-based. Particulars: for EC50: read-out: EC50 for stabilization of K328M-Wee1-luciferase. An excerpt:
Steady-state level of K328M-Wee1-Luciferase (K328M-Wee1-Luc) was divided by Luciferase level (Luc) and plotted.
Similar assays have previously been described; PubChem AID 1807.

In another series the target is T1, FLT3 (Homo sapiens, UniProt P36888).
T1 construct: Reaction Biology Corporation (contract assay)
T1 sequence (P36888 27-993): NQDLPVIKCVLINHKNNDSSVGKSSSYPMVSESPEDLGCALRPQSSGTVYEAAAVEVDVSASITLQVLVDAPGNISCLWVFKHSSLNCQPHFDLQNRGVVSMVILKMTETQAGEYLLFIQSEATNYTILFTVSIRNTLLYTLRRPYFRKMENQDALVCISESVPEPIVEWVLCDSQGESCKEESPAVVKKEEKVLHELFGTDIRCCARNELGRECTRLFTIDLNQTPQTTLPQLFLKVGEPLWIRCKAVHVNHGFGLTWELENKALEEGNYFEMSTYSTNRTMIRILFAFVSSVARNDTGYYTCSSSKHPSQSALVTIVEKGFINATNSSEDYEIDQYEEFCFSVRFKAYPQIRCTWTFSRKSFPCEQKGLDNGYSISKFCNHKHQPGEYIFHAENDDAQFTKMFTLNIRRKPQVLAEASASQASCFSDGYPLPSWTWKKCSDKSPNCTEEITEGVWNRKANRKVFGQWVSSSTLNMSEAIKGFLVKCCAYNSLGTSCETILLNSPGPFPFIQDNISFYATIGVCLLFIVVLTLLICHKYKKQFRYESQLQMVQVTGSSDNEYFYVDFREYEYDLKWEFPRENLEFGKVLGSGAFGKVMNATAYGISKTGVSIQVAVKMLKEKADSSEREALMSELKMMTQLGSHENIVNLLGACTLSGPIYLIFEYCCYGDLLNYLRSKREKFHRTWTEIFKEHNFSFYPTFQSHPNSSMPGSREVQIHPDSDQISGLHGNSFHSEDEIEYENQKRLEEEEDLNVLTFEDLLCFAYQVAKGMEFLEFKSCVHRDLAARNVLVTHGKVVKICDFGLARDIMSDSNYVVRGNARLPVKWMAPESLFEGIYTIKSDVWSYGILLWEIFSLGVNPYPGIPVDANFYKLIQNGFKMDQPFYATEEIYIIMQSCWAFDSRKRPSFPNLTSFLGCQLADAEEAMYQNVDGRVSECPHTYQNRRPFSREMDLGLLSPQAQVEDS
The series is described as follows: In vitro kinase assay, FLT3 (Reaction Biology Corporation). Format: biochemical. Particulars: 10 μM ATP; read-out: FLT3 IC50. How it is done: (§1) Compounds were tested in 10-dose IC50 mode with 3-fold serial dilution starting at 50 μM. […] Reactions were carried out at 10 μM ATP. Average and standard deviations of reactions carried out in triplicate are shown.
(§2) In vitro kinase assay to detect CK1 or FLT3 activity: CK1 and FLT3 assays as well as complete kinase profile of 296 kinases was performed by Reaction Biology Corporation. For FLT3 20 μM final Abltide was used, sequence: [[…]]. For CK1 (all isoforms) 20 μM CK1 tide was used, sequence: [KRRRAL[pS]VASLPGL] in a standard kinase assay with ^32P-ATP and purified kinase. Incorporation of ^32P-ATP into the peptide was measured after a filter-binding assay. In-house CK1d inhibition assays were performed using a standard homogenous time-resolved fluorescence resonance energy transfer (TR-FRET) format in 50 mM Hepes, pH 7.0, 2.5 mM MgCl2, 0.1 mg/ml bovine serum albumin, 1 mM DL-dithiothreitol, 0.01% Triton X-100 (all from Sigma-Aldrich). Briefly, the CK1δ substrate (DEKTDDE, containing CK1 consensus sequence; 4 μL of a 500 nM stock solution) is labeled with a small Ulight acceptor dye (PerkinElmer). In the presence of 10 μL of 10 nM CK1δ, the Ulight peptide is phosphorylated at a single amino acid that is specifically recognized by a europium chelate (Eu)-labeled phosphospecific antibody. Assays were performed in the presence of 2 μL of compound at different (measured) concentrations, and reactions were stopped by adding 10 μL of 4 nM Eu-anti-p-Topo-IIa (PerkinElmer) in Lance Detection Buffer (Perkin Elmer). Upon excitation of the Eu-labeled antibody, energy is transferred to the acceptor dye resulting in the emission of detected light at 665 nm.

In another series the target is CK1δ (Homo sapiens, UniProt P48730). The series is described as follows: In vitro kinase assay, CK1d, 32P-ATP filter binding (Reaction Biology Corporation). The settings on record: 10 μM ATP; read-out: CK1δ IC50. Type of series: biochemical. How it is done:
as §1, §2

The subject of another series is RXF393 (renal). Description: NCI Dose Growth Inhibition assay (NCI-60). Type of series: cell-based. Particulars: Homo sapiens, RXF 393. How it is done:
(§3) Table 3, below, illustrates the activity of some of the compounds of the present invention in the National Cancer Institute's Dose Growth Inhibition assay against several human tumor cell lines selected from the NCI-60 panel.
(§4) NCI-60 Cancer Cell Line Screening was performed by the National Cancer Institute, using the procedures described on their website (http://dtp.nci.nih.gov/branches/btb/ivelsp.html)

The test system of the next series is UACC-62 (melanoma). The series is described as follows: NCI Dose Growth Inhibition assay (NCI-60). Format: cell-based. Particulars: Homo sapiens. How it is done:
as §3, §4

Series [1] has as its system HeLa cells. Description: Cell viability, ATP content (Cell-Titer Glo). Type of series: cell-based. The settings on record: 24 hours, result in words. An excerpt: Error bars represent the standard deviation of three separate experiments.
The next series has as its system HEK-SW cells. The series is described as follows: Amyloid β 1-42 production (AlphaLISA). Format: cell-based. The settings on record: 1 μM; supernatant at 48 hours post plating; result in words. How it is done: HEK-SW cells, which artificially overexpress mutated APP (K670N/M671L), the so-called Swedish mutation, were cultured on D-MEM supplemented with 10% FBS. HEK-SW cells were kindly provided by laboratory of Dr. Dennis Selkoe. HEK-SW cells were plated in 96 well plates (10,000 cells/well) and at 24 hours post plating replaced media and started treatments. […] DAPT, N [(3,5-Difluorophenyl)acetyl]-L-alanyl-2-phenyl]glycine-1,1-dimethylethyl ester, is a known inhibitor of γ-secretase purchased from TOCRIS Bioscience (Ellisville, Mo., USA). Supernatant of cells were collected at 48 hours post plating and concentration of Amyloid β 1-42 (Aβ 1-42) measured by AlphaLISA method (PerkinElmer, Waltham, Mass., USA) following instructions from the company.
(In general: Alpha assays give light when donor and acceptor beads are brought close together.)

Series [2] concerns GCPs in organotypic cerebellar slices. Description: Organotypic cerebellar slice GCP migration assay. Format: cell-based, mice. The settings on record: 500 nM, 48 hours; result in words. The text has this:
Cerebella from P7 mice were isolated and sliced using a vibratome. Subsequently, slices were electroporated with venus-GFP to visualize GCPs. […] Many GCPs migrate to the Purkinje cell layer in DMSO treated cells, but fewer do so in SR-653234 or SR-1277 treated slices. […] Phospho-Y15 Cdc2 is a measure of Wee1 activity. Skp-1 is used as a loading control.

In series [3] the test system is HeLa cells. The series is described as follows: PI-FACS cell cycle analysis. Format: cell-based. Particulars: 24 hours, result in words. The text has this:
FIG. 11 illustrates inhibition of CK1δ and CK1ε can induce an S/G2/M phase arrest.

Sequence of CK1δ (P48730 whole entry): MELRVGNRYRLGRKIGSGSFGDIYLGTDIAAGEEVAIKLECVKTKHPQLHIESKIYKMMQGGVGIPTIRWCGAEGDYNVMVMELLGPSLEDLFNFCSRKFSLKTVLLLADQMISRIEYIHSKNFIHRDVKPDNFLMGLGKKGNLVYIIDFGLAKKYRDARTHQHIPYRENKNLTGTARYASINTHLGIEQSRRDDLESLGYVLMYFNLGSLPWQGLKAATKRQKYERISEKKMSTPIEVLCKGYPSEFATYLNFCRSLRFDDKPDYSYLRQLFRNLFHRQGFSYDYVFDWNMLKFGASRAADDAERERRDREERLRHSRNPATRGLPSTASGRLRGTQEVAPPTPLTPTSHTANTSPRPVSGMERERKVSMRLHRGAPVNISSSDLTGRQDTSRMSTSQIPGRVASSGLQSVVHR

In the case of `O=[N+]([O-])c1cccc2[nH]c(CNc3nc(N4CCOCC4)nc4c3ncn4-c3ccsc3)nc12` [SR-1277], the “% Inhibition, Wee1 Degradation” value in the series with K328M-Wee1-luciferase (0.25 µM) is recorded as 100.0%. Further, the EC50 in the series on K328M-Wee1-luciferase was determined as 0.04 µM. Besides, the IC50 is 0.305 µM at FLT3 and 0.049 µM at CK1δ. In addition, the GI50 was less than 0.01 µM in the series with RXF393 (renal) and 0.014 µM with UACC-62 (melanoma) (UACC-62). Besides, the cell viability entry in the series with HeLa cells [1] is on record as “not affected”. Further, the Aβ1-42 production entry with HEK-SW cells was “inhibit Aβ1-42 production”. Besides, the “GCP migration to the Purkinje cell layer” value in [2] is recorded as “fewer do so”. In addition, the cell cycle arrest entry with HeLa cells [3] is recorded as “induced an S/G2/M arrest”.

In the case of `c1ccc2[nH]c(CNc3nc(N4CCOCC4)nc4c3ncn4-c3ccsc3)nc2c1` [SR-653234], the EC50 in the series on K328M-Wee1-luciferase (HeLa cells) came out at 0.624 µM. In the series on K328M-Wee1-luciferase (HeLa cells, result in words), the “stabilization of K328M-Wee1-luciferase” value is recorded as “stabilizes Wee1-luciferase”. Also, the “% Inhibition, Wee1 Degradation” value in the series with K328M-Wee1-luciferase (at 250 nM, reported relative to SR-1277 = 100%) is 56.8%. Moreover, the 50% inhibitory concentration (IC50) on FLT3 is 0.161 µM and 0.1 µM; at CK1δ it was 0.161 µM and 0.54 µM. Moreover, the GI50 amounted to 0.026 µM with RXF393 (renal) (RXF393 (renal), read-out: GI50) and 0.068 µM in the series with UACC-62 (melanoma) (UACC-62 (melanoma), read-out: GI50). Further, the cell viability entry in the series with HeLa cells [1] is reported as “without affecting cell viability; also recorded: not affected”. Besides, in the series on HEK-SW cells, the Aβ1-42 production result is recorded as “inhibit Aβ1-42 production”. The “GCP migration to the Purkinje cell layer” value in series [2] is “fewer do so”. For the same molecule, the cell cycle arrest entry in the series on HeLa cells [3] is given as “induced an S/G2/M arrest”.
